Assay results reported in patent publication US7964613B2 (Asahi Kasei Pharma Corporation, priority 2007, dated 2011).

These molecules were tested on rabbit normal intraocular pressure (assay: Intraocular pressure reducing action). Settings: Oryctolagus cuniculus, topical; 3 mM aqueous solution, 50 μl to the left eye; max IOP reduction (2, 4, 6 hours) / value immediately before administration; read-out: intraocular pressure reducing degree.
Assay type: in vivo, Japanese white rabbit
Protocol: A Japanese white rabbit having a body weight of about 2 kg was placed in a positioner and naturalized for one week before the experiment. An opthalmologic local anesthesant (Benoxil) was administered to both eyes, and then intraocular pressure was measured by using a tonometer (Classic 30, Solan). A 3 mM aqueous solution of a test compound was administered in a volume of 50 μl to the left eye, and the right eye was not treated (control eye). The intraocular pressure values were measured for the left and right eyes immediately before, and 2, 4 and 6 hours after the administration of the aqueous solution of the test compound, and the difference of the measured values for the left and right eyes was considered an intraocular pressure reduction value of the test medicament at each measurement time. The largest difference of the values for the left and right eyes among the measured values at the measurement times (after 2, 4 and 6 hours) was considered the maximum intraocular pressure reduction value (max ? IOP) of each test medicament. The intraocular pressure reducing degree representing the intraocular pressure reducing action of each test medicament was calculated according to the following formula. Since rabbits show significant daily variation of intraocular pressure, daily variation is added when change of intraocular pressure is measured over time, and the intraocular pressure reducing action may be overestimated. Therefore, we used this calculation method of intraocular pressure reduction value in order to minimize the influence of the variation. Intraocular pressure reducing degree(%)=(max ? IOP/Intraocular pressure value immediately before administration)×100

Compound | inhibition in vivo at 3000 µM [%]
CN(C)CCC(=O)N[C@H]1CCN(S(=O)(=O)c2cccc3cncc(Cl)c23)C1 [Example 78, (S)-3-[3-(Dimethylamino)propionyl]amino-1-(4-chloro-5-isoquinolinesulfonyl)pyrrolidine] | 10 to 20
CSCCC(=O)N[C@H]1CCN(S(=O)(=O)c2cccc3cncc(Cl)c23)C1 [Example 79, (S)-3-[3-(Methylthio)propionyl]amino-1-(4-chloro-5-isoquinolinesulfonyl)pyrrolidine] | 10 to 20
O=C(CCn1ccnc1)N[C@H]1CCN(S(=O)(=O)c2cccc3cncc(Cl)c23)C1 [Example 81, (S)-3-[3-(1H-Imidazol-1-yl)propionyl]amino-1-(4-chloro-5-isoquinolinesulfonyl)pyrrolidine] | 10 to 20
O=C(CCn1cnnn1)N[C@H]1CCN(S(=O)(=O)c2cccc3cncc(Cl)c23)C1 [Example 82, (S)-3-[3-(1H-Tetrazol-1-yl)propionyl]amino-1-(4-chloro-5-isoquinolinesulfonyl)pyrrolidine] | 5 to 10
O=C(Cn1cncn1)N[C@H]1CCN(S(=O)(=O)c2cccc3cncc(Cl)c23)C1 [Example 84, (S)-3-[2-(1H-1,2,4-Triazol-1-yl)acetyl]amino-1-(4-chloro-5-isoquinolinesulfonyl)pyrrolidine] | 10 to 20
O=C(Cn1ccnc1)N[C@H]1CCN(S(=O)(=O)c2cccc3cncc(Cl)c23)C1 [Example 86, (S)-3-[2-(1H-Imidazol-1-yl)acetyl]amino-1-(4-chloro-5-isoquinolinesulfonyl)pyrrolidine] | 10 to 20
O=C(CN1CCCC1=O)N[C@H]1CCN(S(=O)(=O)c2cccc3cncc(Cl)c23)C1 [Example 87, (S)-3-[2-(2-Oxopyrrolidin-1-yl)acetyl]amino-1-(4-chloro-5-isoquinolinesulfonyl)pyrrolidine] | 10 to 20
O=C(CN1CCOCC1)N[C@H]1CCN(S(=O)(=O)c2cccc3cncc(Cl)c23)C1 [Example 88, (S)-3-[2-(Morpholin-1-yl)acetyl]amino-1-(4-chloro-5-isoquinolinesulfonyl)pyrrolidine] | 10 to 20
CN1CCN(CC(=O)N[C@H]2CCN(S(=O)(=O)c3cccc4cncc(Cl)c34)C2)CC1 [Example 89, (S)-3-[2-(4-Methylpiperazin-1-yl)acetyl]amino-1-(4-chloro-5-isoquinolinesulfonyl)pyrrolidine] | 5 to 10
N#CCC(=O)N[C@H]1CCN(S(=O)(=O)c2cccc3cncc(Cl)c23)C1 [Example 90, (S)-3-(2-Cyanoacetyl)amino-1-(4-chloro-5-isoquinolinesulfonyl)pyrrolidine] | 10 to 20
O=C(CN1CCNCC1)N[C@H]1CCN(S(=O)(=O)c2cccc3cncc(Cl)c23)C1 [Example 91, (S)-3-[2-(piperazin-1-yl)acetyl]amino-1-(4-chloro-5-isoquinolinesulfonyl)pyrrolidine] | 10 to 20
O=C(CN1CCN(CCO)CC1)N[C@H]1CCN(S(=O)(=O)c2cccc3cncc(Cl)c23)C1 [Example 92, (S)-3-[2-[4-(2-Hydroxyethyl)piperazin-1-yl]acetyl]amino-1-(4-chloro-5-isoquinolinesulfonyl)pyrrolidine] | 10 to 20
O=C(CN1CCOC1=O)N[C@H]1CCN(S(=O)(=O)c2cccc3cncc(Cl)c23)C1 [Example 93, (S)-3-[2-(2-Oxooxazolidin-3-yl)acetyl]amino-1-(4-chloro-5-isoquinolinesulfonyl)pyrrolidine] | 10 to 20
O=C(CNC(=O)c1ccccc1)N[C@H]1CCN(S(=O)(=O)c2cccc3cncc(Cl)c23)C1 [Example 94, (S)-3-[(2-Benzoylamino)acetyl]amino-1-(4-chloro-5-isoquinolinesulfonyl)pyrrolidine] | 10 to 20
O=C(CNC(=O)c1cccnc1)N[C@H]1CCN(S(=O)(=O)c2cccc3cncc(Cl)c23)C1 [Example 95, (S)-3-[(2-Nicotinamino)acetyl]amino-1-(4-chloro-5-isoquinolinesulfonyl)pyrrolidine] | 10 to 20
COCCOCC(=O)N[C@H]1CCN(S(=O)(=O)c2cccc3cncc(Cl)c23)C1 [Example 98, (S)-3-[2-(2-Methoxyethoxy)acetyl]amino-1-(4-chloro-5-isoquinolinesulfonyl)pyrrolidine] | ≥ 20
COCCOCCOCC(=O)N[C@H]1CCN(S(=O)(=O)c2cccc3cncc(Cl)c23)C1 [Example 99, (S)-3-[2-[2-(2-Methoxyethoxy)ethoxy]acetyl]amino-1-(4-chloro-5-isoquinolinesulfonyl)pyrrolidine] | 10 to 20
NC(C(=O)N[C@H]1CCN(S(=O)(=O)c2cccc3cncc(Cl)c23)C1)c1ccccc1 (stereo partly drawn) [Example 106, (S)-3-[(2-Amino-2-phenyl)acetyl]amino-1-(4-chloro-5-isoquinolinesulfonyl)pyrrolidine] | ≥ 20
O=C(COc1ccc2nncn2n1)N[C@H]1CCN(S(=O)(=O)c2cccc3cncc(Cl)c23)C1 [Example 107, (S)-3-[2-([1,2,4]Triazolo[4,3-b]pyridazin-6-yloxy)acetyl]amino-1-(4-chloro-5-isoquinolinesulfonyl)pyrrolidine] | 10 to 20
COCC(COC)OCC(=O)N[C@H]1CCN(S(=O)(=O)c2cccc3cncc(Cl)c23)C1 [Example 108, (S)-3-[2-(1,3-Dimethoxypropan-2-yloxy)acetyl]amino-1-(4-chloro-5-isoquinolinesulfonyl)pyrrolidine] | ≥ 20
CN(C)CCOCC(=O)N[C@H]1CCN(S(=O)(=O)c2cccc3cncc(Cl)c23)C1 [Example 111, (S)-3-[2-[2-(Dimethylamino)ethoxy]acetyl]amino-1-(4-chloro-5-isoquinolinesulfonyl)pyrrolidine] | 5 to 10
COCC(=O)N[C@H]1CCN(S(=O)(=O)c2cccc3cncc(F)c23)C1 [Example 115, (S)-3-(2-Methoxyacetyl)amino-1-(4-fluoro-5-isoquinolinesulfonyl)pyrrolidine] | 5 to 10
COCC(=O)N(C)[C@H]1CCN(S(=O)(=O)c2cccc3cncc(F)c23)C1 [Example 116, (S)-3-[N-(2-Methoxyacetyl)-N-methyl]amino-1-(4-fluoro-5-isoquinolinesulfonyl)pyrrolidine] | 10 to 20
CN(C)CC(=O)N[C@H]1CCN(S(=O)(=O)c2cccc3cncc(F)c23)C1 [Example 117, (S)-3-[(2-Dimethylamino)acetyl]amino-1-(4-fluoro-5-isoquinolinesulfonyl)pyrrolidine] | 5 to 10
CN(C)CC(=O)N(C)[C@H]1CCN(S(=O)(=O)c2cccc3cncc(F)c23)C1 [Example 118, (S)-3-[N-(2-Dimethylamino)acetyl-N-methyl]amino-1-(4-fluoro-5-isoquinolinesulfonyl)pyrrolidine] | 5 to 10
